Among the test systems are SW-620 colon; NCI-H226 lung; NCI-H522 lung; M14 melanoma; HCT-116 colon; MALME-3M melanoma; IGROV1 ovarian; PC-3 prostate; COLO 205 colon; MOLT-4 leukemia.
Common to all, as to experiment: NCI-60 cell line screen, 48 h

Each structure is given as a SMILES string.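 Dose response: 5 concentrations. Exposure: 48 h. Format: 96-well plates. Endpoint: linear interpolation; highest concentration if not reached. GI50: concentration for 50% inhibition of growth. At the TGI there is no net growth.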 Where only a bound is given, the exact number is not on record here.

For the molecule `CN(C)C/C=C/C(=O)Nc1cc2c(Nc3ccc(F)c(Cl)c3F)ncnc2cc1OCCOC(F)F`, the GI50 is 1.24 µM with SW-620 colon; 1.31 µM in the assay with NCI-H226 lung; below 15.2 nM in the assay with NCI-H522 lung; 1.87 µM in the assay on M14 melanoma; 0.625 µM with HCT-116 colon; 1.27 µM with MALME-3M melanoma. Besides, the GI50 in the assay with IGROV1 ovarian was below 0.01 µM; with PC-3 prostate, 1.9 µM; in the assay on COLO 205 colon, 1.03 µM; with MOLT-4 leukemia it was 1110 nM. Moreover, the TGI with SW-620 colon was determined as 9.58 µM; in the assay on NCI-H226 lung, 4.67 µM; in the assay on NCI-H522 lung, 1.35 µM; with M14 melanoma, 6.2 µM; with HCT-116 colon it was 2.98 µM; with MALME-3M melanoma, 2.94 µM. For the same molecule, the TGI in the assay on IGROV1 ovarian turned out to be 0.39 µM; in the assay on PC-3 prostate it was 9.09 µM; in the assay on COLO 205 colon, 3.55 µM; in the assay with MOLT-4 leukemia, 5.43 µM.
As for `CN1C(=O)[C@@H](NC(=O)[C@H](CCC(F)(F)F)[C@H](CCC(F)(F)F)C(N)=O)N=C(c2ccccc2)c2ccccc21`, the GI50 in the assay on SW-620 colon is above 100 µM; in the assay on NCI-H226 lung, above 100 µM; in the assay with NCI-H522 lung it was 85200 nM; with M14 melanoma it was 50.9 µM; in the assay on HCT-116 colon it was 56.7 µM; in the assay with MALME-3M melanoma, above 100 µM. Further, the GI50 with IGROV1 ovarian was above 100 µM; with PC-3 prostate, 55.7 µM; in the assay with COLO 205 colon it was 87.5 µM; with MOLT-4 leukemia it was 27300 nM. Moreover, the TGI with SW-620 colon, in the assay with NCI-H226 lung, with NCI-H522 lung, in the assay on M14 melanoma, with HCT-116 colon and in the assay with MALME-3M melanoma was above 100 µM throughout. Also, the TGI with IGROV1 ovarian, in the assay on PC-3 prostate, in the assay on COLO 205 colon and in the assay on MOLT-4 leukemia was above 100 µM in each case.
Take `CCn1cc(-c2ccnc3[nH]ccc23)c(-c2cccc(NC(=O)Nc3ccc(OCc4ccccc4)cc3)c2)n1`: the GI50 in the assay on SW-620 colon was 20.2 µM; with NCI-H226 lung, above 25 µM; in the assay with NCI-H522 lung, 2980 nM; in the assay with M14 melanoma, 14.4 µM; in the assay on HCT-116 colon, 12.1 µM; with MALME-3M melanoma it was above 22.6 µM. In addition, the GI50 was 18.1 µM with IGROV1 ovarian, 10.6 µM in the assay on PC-3 prostate, 11.2 µM in the assay with COLO 205 colon and 6850 nM with MOLT-4 leukemia. The TGI in the assay with SW-620 colon, with NCI-H226 lung, in the assay with NCI-H522 lung, with M14 melanoma, in the assay on HCT-116 colon and in the assay on MALME-3M melanoma was above 25 µM each time. The TGI in the assay on IGROV1 ovarian, with PC-3 prostate, in the assay with COLO 205 colon and with MOLT-4 leukemia was above 25 µM throughout.
For the molecule `Fc1ccc(-c2ncn(C3CCNCC3)c2-c2ccnc(Oc3ccc(F)c(F)c3)n2)cc1`, the GI50 was 4.36 µM in the assay on SW-620 colon; 9.34 µM in the assay with NCI-H226 lung; 5520 nM with NCI-H522 lung; 4.8 µM with M14 melanoma; 4.09 µM in the assay on HCT-116 colon; 5.19 µM in the assay on MALME-3M melanoma. Moreover, the GI50 with IGROV1 ovarian was 8.61 µM; in the assay on PC-3 prostate it was 9.05 µM; in the assay with COLO 205 colon it was 4.55 µM; in the assay with MOLT-4 leukemia, 8340 nM. For the same molecule, the TGI in the assay on SW-620 colon is 8.98 µM; with NCI-H226 lung, above 25 µM; in the assay with NCI-H522 lung, 10.5 µM; in the assay with M14 melanoma, 8.97 µM; with HCT-116 colon it was 7.56 µM; in the assay with MALME-3M melanoma it was 9.85 µM. Further, the TGI is above 22.6 µM in the assay on IGROV1 ovarian, above 19.9 µM in the assay on PC-3 prostate, 8.47 µM in the assay on COLO 205 colon and above 19.1 µM in the assay with MOLT-4 leukemia.
For the molecule `Nc1ccccc1NC(=O)c1ccc(CCCC(=O)Nc2ccc(C3CC3N)cc2)cc1` (stereo not given), the GI50 is 1.08 µM with SW-620 colon; 1.85 µM in the assay on NCI-H226 lung; 673 nM in the assay with NCI-H522 lung; 2.01 µM in the assay with M14 melanoma; 0.375 µM in the assay on HCT-116 colon; 0.559 µM in the assay with MALME-3M melanoma. Also, the GI50 with IGROV1 ovarian was 4.24 µM; with PC-3 prostate, 2.32 µM; with COLO 205 colon, 0.765 µM; with MOLT-4 leukemia, 1870 nM. Moreover, the TGI with SW-620 colon is 29.5 µM; with NCI-H226 lung, 69.4 µM; with NCI-H522 lung, 5.12 µM; with M14 melanoma it was 15.4 µM; in the assay on HCT-116 colon, 16 µM; with MALME-3M melanoma, 7.2 µM. Moreover, the TGI was above 100 µM in the assay on IGROV1 ovarian, 95.3 µM in the assay with PC-3 prostate, 2.89 µM in the assay with COLO 205 colon and above 100 µM with MOLT-4 leukemia.
Turning to `CC(C)CC(=O)Nc1n[nH]c2c1CN(C(=O)C1CCN(C)CC1)C2(C)C`, the GI50 is 0.895 µM with SW-620 colon; 1.48 µM with NCI-H226 lung; 467 nM in the assay on NCI-H522 lung; 2.24 µM with M14 melanoma; 0.362 µM with HCT-116 colon; 6.95 µM with MALME-3M melanoma. Further, the GI50 in the assay on IGROV1 ovarian is 0.579 µM; in the assay on PC-3 prostate, 1.33 µM; with COLO 205 colon, 0.331 µM; in the assay with MOLT-4 leukemia, 917 nM. Also, the TGI in the assay on SW-620 colon was above 10 µM; in the assay with NCI-H226 lung, above 10 µM; with NCI-H522 lung it was 3.99 µM; in the assay on M14 melanoma it was above 10 µM; with HCT-116 colon, above 10 µM; in the assay on MALME-3M melanoma it was above 10 µM. In addition, the TGI in the assay with IGROV1 ovarian is above 10 µM; with PC-3 prostate, above 10 µM; in the assay on COLO 205 colon it was 2.19 µM; with MOLT-4 leukemia it was above 10 µM.
Consider `COC1=CC(=O)C(OC)=C(OC)C1=O`, for which the GI50 in the assay on SW-620 colon was 18 µM; in the assay with NCI-H226 lung, 18.7 µM; in the assay with NCI-H522 lung, 3210 nM; in the assay with M14 melanoma, 15.6 µM; in the assay on HCT-116 colon it was 16 µM; in the assay on MALME-3M melanoma, 18 µM. Moreover, the GI50 was 19.7 µM with IGROV1 ovarian, 14.9 µM in the assay on PC-3 prostate, 15.1 µM in the assay on COLO 205 colon and 2070 nM with MOLT-4 leukemia. Also, the TGI in the assay with SW-620 colon was determined as 35.1 µM; in the assay on NCI-H226 lung it was 39.2 µM; with NCI-H522 lung, 17.4 µM; in the assay with M14 melanoma, 29.7 µM; with HCT-116 colon, 29.6 µM; in the assay on MALME-3M melanoma, 35.6 µM. The TGI in the assay with IGROV1 ovarian came out at 37.6 µM; in the assay with PC-3 prostate, 32.8 µM; in the assay on COLO 205 colon, 29 µM; with MOLT-4 leukemia it was 5.5 µM.
